Laboratory results reported in patent US11406683B2, “Compounds and therapeutics uses thereof” (Centauri Therapeutics Limited (GB/GB), priority 2017, dated 2022).
Bridge positions count the residues as written; N and C are the ends. Square brackets hold non-standard residues; d marks the D form. Side chains are listed from the residue outwards. Peptide text beside a SMILES is read from it. * marks the point of attachment. X1 = C[C@@H]1OC(OCCCC(=O)NCCNC(=O)COc2cc(OCC(=O)NCCNC(=O)CCCOC3O[C@@H](C)C(O)C(O)[C@@H]3O)cc(-c3cc(OCC(=O)NCCNC(=O)CCCOC4O[C@@H](C)C(O)C(O)[C@@H]4O)cc(C(=O)*)c3)c2)[C@@H](O)C(O)C1O; X3 = C[C@@H]1OC(OCCCC(=O)NCCNC(=O)COc2ccc(-c3cccc(C(=O)*)c3)cc2)[C@@H](O)C(O)C1O; Gly(octyl) = CCCCCCCC[C@H](N)C(=O)O; Nonanoyl = CCCCCCCCC(=O)*; X2 = CC[C@H](C)CCCCC(=O)*; Dab = NCC[C@H](N)C(=O)O; Ahx = NCCCCCC(=O)O

Experiments:
[1] = system: Pseudomonas Aeruginosa PA01 (ATCC 15692); assay: Flow cytometric antibody recruitment assay using an anti-Rhamnose antibody; assay type: cell-based; details: 40 μM substance; MFI (PE) over vehicle control; human anti-Rhamnose IgG polyclonal antibody 42 μg/mL; binding to bacterial surface
Experimental: Flow Cytometric Antibody Recruitment Assay Using an Anti-Rhamnose Antibody
A secondary fluorescently labelled anti-IgG antibody was used to detect the anti-Rhamnose antibody binding.
The assays were carried out in polystyrene 96-well U bottom plates (Costar) blocked with 200 μl of Casein blocking buffer for 1 hour at room temperature (Fisher 37528). Pseudomonas Aeruginosa PA01 (ATCC 15692) was grown in LB broth, Miller (Fisher BP1426-500) to late exponential phase. Subsequently, the bacteria were washed once with Hank's Balanced Salt Solution with calcium and magnesium (HBSS+/+) and then resuspended in HBSS+/+ at a bacterial density of 2×10^9 colony forming units (CFU)/mL. […] The bacteria were then washed three times with 200 μL HBSS+/+, prior to adding 50 μL of the human anti Rhamnose IgG polyclonal antibody at a final concentration of 42 μg/mL in HBSS+/+. The samples were incubated for 1 hour at room temperature shaking at 450 rpm. The bacteria were washed three times as above, prior to adding 100 μL of a PE-labeled anti-human IgG Fc secondary antibody (Biolegend 409304) at 10 μg/mL in HBSS+/+ and incubating at room temperature for 1 hour at 450 rpm. After three final washes with 200 μL HBSS+/+, the bacteria were resuspended in 200 μL HBSS+/+ and evaluated for anti-Rhamnose antibody binding on a Cytoflex flow cytometer (Beckman Coulter). 50,000 counts of bacterial particles were sampled and the median fluorescent shift was recorded in the PE-A channel. Data from all samples were analysed using Kaluza software (Beckman Coulter).
The fold shift over background was calculated by dividing the Median Fluorescent Intensity (MFI) obtained in the presence of 40 μM of the Example compounds by the MFI value obtained in the vehicle controls, i.e., the absence of Examples. The higher the fold shift over background, the more anti-Rhamnose was bound to the bacterial surface. The shift in fluorescence intensity (PE) occurs due to the binding event at each end of the molecule.

[2] = system: E. coli K1:O18ac:H7 (ATCC 700973); assay: Flow cytometric complement deposition assay with human serum; assay type: cell-based; details: MFI (APC) over vehicle, 25% pooled human serum, 37° C., 20 min; for C3b deposition (5 μM, Average fold change): 5 μM compound, C3b/iC3b on bacterial surface
Experimental: Flow Cytometric Complement Deposition Assay with Human Serum
The assays were carried out in polystyrene 96-well U bottom plates (Costar). E. coli K1:O18ac:H7 (American Type Culture Collection, ATCC 700973) was grown in LB broth, Miller (Fisher BP1426-500) to late exponential phase. Subsequently, the bacteria were washed in Hank's Balanced Salt Solution with calcium and magnesium (HBSS+/+) and then resuspended in assay buffer, i.e., PBS with 1% bovine serum albumin (BSA, Sigma A2153) at a concentration of 2×10^9 CFU/mL. […] Subsequently, 150 μL ice-cold HBSS+/+ was added, the bacteria were pelleted and then washed once with 200 μL HBSS+/+, prior to adding 100 μL of pooled human serum (Innovate Research IPLA-CSER) as anti-Rhamnose antibody and complement source in PBS, 1% BSA to a final serum concentration of 25%. Bacteria were incubated at 37° C. for 20 min to allow for anti-Rhamnose binding to the compounds and complement deposition. 100 μL ice-cold HBSS+/+ was added to each well to stop the reaction. The bacteria were pelleted by centrifugation at 4° C. and the supernatants discarded. The bacteria were then washed two times with 200 μL refrigerated HBSS+/+, prior to adding 100 μL of APC-labelled anti-human C3b/iC3b antibody (Biolegend 846106; clone 3E7/C3b) at 1:25 dilution in PBS, 1% BSA and incubated at 4° C. for 45 min. After three final washes with 200 μL HBSS+/+, the bacteria were resuspended in HBSS+/+ and their fluorescence profile as an indicator for complement deposition evaluated on a Cytoflex flow cytometer (Beckman Coulter). The median fluorescent intensity (MFI) was recorded in the APC channels. Data from all samples were analysed using Kaluza software (Beckman Coulter).
The fold shift over background was calculated by dividing the MFI obtained in the presence of the Examples (5 μM) by the MFI obtained in the absence of Examples, i.e., in the presence of vehicle. The shift in fluorescence intensity (APC) occurred due to detection of covalently bound complement components C3b/iC3b to the surface of the bacteria.

CCCCCCCC[C@H](NC(=O)CCCCCNC(=O)CCCCCNC(=O)c1cccc(-c2ccc(OCC(=O)NCCNC(=O)CCCOC3O[C@@H](C)C(O)C(O)[C@@H]3O)cc2)c1)C(=O)N[C@@H](CCN)C(=O)N[C@H](C(=O)N[C@@H](CCN)C(=O)N[C@H]1CCNC(=O)[C@H]([C@@H](C)O)NC(=O)[C@H](CCN)NC(=O)[C@H](CCN)NC(=O)[C@H](CC(C)C)NC(=O)[C@@H](Cc2ccccc2)NC(=O)[C@H](CCN)NC1=O)[C@@H](C)O (some centres unmarked) [Example 1] ({X3-Ahx-Ahx}-[Gly(octyl)][Dab]T[Dab][Dab][Dab][dF]L[Dab][Dab]T; lactam 5-C)
IgG Recruitment (40 μM, Average fold change) [1]: 77.7 fold change
C3b deposition (5 μM, Average fold change) [2]: 109.8 fold change

CCCCCCCC[C@H](NC(=O)CCCCCNC(=O)CCCCCNC(=O)c1cc(OCC(=O)NCCNC(=O)CCCOC2O[C@@H](C)C(O)C(O)[C@@H]2O)cc(-c2cc(OCC(=O)NCCNC(=O)CCCOC3O[C@@H](C)C(O)C(O)[C@@H]3O)cc(OCC(=O)NCCNC(=O)CCCOC3O[C@@H](C)C(O)C(O)[C@@H]3O)c2)c1)C(=O)N[C@@H](CCN)C(=O)N[C@H](C(=O)N[C@@H](CCN)C(=O)N[C@H]1CCNC(=O)[C@H]([C@@H](C)O)NC(=O)[C@H](CCN)NC(=O)[C@H](CCN)NC(=O)[C@H](CC(C)C)NC(=O)[C@@H](Cc2ccccc2)NC(=O)[C@H](CCN)NC1=O)[C@@H](C)O (some centres unmarked) [Example 2] ({X1-Ahx-Ahx}-[Gly(octyl)][Dab]T[Dab][Dab][Dab][dF]L[Dab][Dab]T; lactam 5-C)
IgG Recruitment (40 μM, Average fold change) [1]: 3.4 fold change
C3b deposition (5 μM, Average fold change) [2]: 148.1 fold change

CCCCCCCCC(=O)N[C@@H](CCNC(=O)CCCCCNC(=O)CCCCCNC(=O)c1cccc(-c2ccc(OCC(=O)NCCNC(=O)CCCOC3O[C@@H](C)C(O)C(O)[C@@H]3O)cc2)c1)C(=O)N[C@H](C(=O)N[C@@H](CCN)C(=O)N[C@H]1CCNC(=O)[C@H]([C@@H](C)O)NC(=O)[C@H](CCN)NC(=O)[C@H](CCN)NC(=O)[C@H](CC(C)C)NC(=O)[C@@H](Cc2ccccc2)NC(=O)[C@H](CCN)NC1=O)[C@@H](C)O (stereo partly drawn) [Example 5] (Nonanoyl-[Dab]([Ahx-Ahx-X3])T[Dab][Dab][Dab][dF]L[Dab][Dab]T; lactam 4-C)
IgG Recruitment (40 μM, Average fold change) [1]: 8.45 fold change
C3b deposition (5 μM, Average fold change) [2]: 20.5 fold change

CC[C@H](C)CCCCC(=O)N[C@@H](CCN)C(=O)N[C@H](C(=O)N[C@@H](CCN)C(=O)N[C@H]1CCNC(=O)[C@H]([C@@H](C)O)NC(=O)[C@H](CCN)NC(=O)[C@H](CCN)NC(=O)[C@H](CC(C)C)NC(=O)[C@@H](Cc2ccccc2)NC(=O)[C@H](CCN)NC1=O)[C@@H](C)O [Polymyxin B, reference compound] (X2-[Dab]T[Dab][Dab][Dab][dF]L[Dab][Dab]T; lactam 4-C)
IgG Recruitment (40 μM, Average fold change) [1]: 1.58 fold change
C3b deposition (Average fold change) ([2]; 20 μM PmxB): 24.535 fold change
